Data: patent US8394793B2, “Therapeutic agent for inflammatory bowel disease” (Nippon Shinyaku Co., Ltd., priority 2008, dated 2013)

System: colitis resulted by administration of an aqueous solution of dextran sulfate in rats
Assay: Dextran sulfate-induced colitis in rats (Test Example 1)
Format: in vivo, rat
Details: F 334 rats, 3% dextran sulfate in drinking water for 5 days, 5 mg/kg orally twice daily
Description: Rats (males; eight weeks age) of an F 334 strain (Japan SLC) were allowed free access to a 3% aqueous solution of dextran sulfate for five days and, after that, they were allowed free access to tap water for one day. The test substance was orally administered twice daily at the start of drinking of a 3% aqueous solution of dextran sulfate. After six days from the initiation of the administration, the large intestine was excised and its length was measured. With regard to the symptom score, (1) stool consistency, (2) fecal blood and (3) degree of body weight reduction from the previous day were evaluated in five stages as shown in the following Table 1 and a mean value thereof was calculated. As to the test substance, the compound A (5 mg/kg) was used. The test substance was administered by suspending in a 0.5% aqueous solution of methyl cellulose. A 0.5% aqueous solution of methyl cellulose was administered to the control group. Ten rats per group were used. [table] With regard to shortening of the large intestine, significant difference from the control group was tested by a t-test (*: p<0.05). With regard to the symptom score of colitis, significant difference from the control group was tested by a t-test (##: p<0.01).

With `CC(C)N(CCCCOCC(=O)NS(C)(=O)=O)c1cnc(-c2ccccc2)c(-c2ccccc2)n1` [compound A, 2-{4-[N-(5,6-diphenylpyrazin-2-yl)-N-isopropylamino]butyl-oxy}-N-(methylsulfonyl)acetamide] the “shortening of large intestine (length of the large intestine)” value (large intestine excised after six days, t-test vs control p<0.05, FIG. 1) was “significantly suppressed” and the “symptom score of colitis (stool consistency, fecal blood, body weight reduction)” value (t-test vs control p<0.01, FIG. 2) was “significantly suppressed”.
